Reference: patent US9371295B2, “Compounds for use in the treatment of disorders that are ameliorated by inhibition of HDAC” (IRBM—Science Park S.p.A., priority 2012, dated 2016)
pIC50: −log10 of the molar value.

Experiments:
HDAC1 = molecular target: T1, HDAC1 (Homo sapiens, UniProt Q13547); test: HDAC1 assay (Fluor-de-Lys fluorescent deacetylase assay); format: biochemical; settings: read-out: hHDAC IC50
T1 construct: made in house
In short: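 Serially diluted compounds were pre-incubated with purified FLAG-tagged HDAC1 (1-2 nM final; from transfected HeLa cells) or HeLa nuclear extract, then given the Fluor-de-Lys acetyl-lysine substrate/developer; deacetylation read as fluorescence. Reactions were stopped with TSA (3 uM final).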

HDAC in Hela cells = test: HDAC Hela Cell Based assay
K562 cells = test: Erythroid differentiation of K562 cells by benzidine staining; format: cell-based, human
Method: The biological activity of the compounds of the present application was evaluated by examining the capacity to modulate the expression of γ-globin genes in the human K562 cell line, which is capable of differentiating in the erythroid manner by expressing genes for γ-globin if treated with modifiers of the biological response that are suitable for the purpose (Bianchi et al, J. Haematol., 113, 4, p. 951-961, 2001). The human K562 cells were cultured in RPMI 1640 medium (Sigma, St Louis, Mo., USA) supplemented with 10% foetal bovine serum (FBS; Analitical de Mori, Milan, Italy), 100 units/mL penicillin and 100 μg/mL streptomycin. Cell growth was determined according to cell number/ml, using a cell counter (Coulter Electronics, Hialeah, Fla., USA). For experiments, K562 cell cultures were initiated at 3×10^4/mL and the chemical inducers at the indicated concentrations added. Following 3-5 days incubation without a medium change erythroid differentiation was determined by staining the cells in a solution containing 0.2% benzidine in 0.5 M glacial acetic acid, 10% H2O2. Benzidine positivity indicates the presence of intracellular Hb.
(§1) The erythroid differentiation of K562 cells was investigated following treatment with selected compounds of the invention. The effect on cell proliferation was first determined for all tested molecules by culture of K562 cells in the presence of increasing concentration of the compounds. The cell number per sample was then determined after 3, 4 and 5 days. The IC50 values reported in Table 3 for the antiproliferative effect were calculated from the concentration of the compounds necessary to decrease the cell number to 50% of the values obtained in control untreated K562 cell cultures, after a 5 days culture period. Erythroid differentiation was measured by benzidine staining after 5, 6 and 7 days of cell culture and by quantitative reverse transcriptase polymerase-chain reaction (RT-qPCR) to quantify the expression of γ-globin mRNA. Different concentrations of tested compounds were employed because of their differing antiproliferative effects; accordingly, concentrations were chosen to maximize the erythroid induction effect without extensive reduction of cell viability. In Table 3 the % of benzidine positive cells and the increase in γ-globin mRNA assayed by RT-qPCR after 6 days of culture period are reported.
Table 4 reports induction of erythroid differentiation in K562 cells treated with an optimized concentration of the compound 2 in comparison with known inducers. Compound 2 is able to stimulate an increase of the proportion of benzidine-positive (hemoglobin producing) K562 cells. This is associated with an increase of the expression of γ-globin mRNA.

[1] = system: γ-globin mRNA in K562 cells; test: γ-globin mRNA in K562 cells by quantitative RT-PCR; format: cell-based, human; settings: 6 days
Method: The expression of the genes encoding for γ-globin was evaluated by quantitative RT-PCR. The analyses were carried out on material extracted from cells treated for 6 days in the conditions indicated.
Total RNA was extracted from cells by the use of TRI Reagent RNA isolation Reagent (Sigma Aldrich). All solutions and laboratory equipment were certified RNAse free. Following the manufacturers instructions, 1 mL of the reagent was added to 5*10^6 cells. After a 3 minute incubation at room temperature, 20 μg of glycogen and 200 μL of chloroform were added. The samples were then centrifuged and the aqueous phase recovered. This phase was diluted with one volume of isopropanol and centrifuged at 4° C. to let the RNA precipitate. After a washing step with methanol, the extracted RNA was dried and then resuspended in RNAse free water. The purified RNAs were stored at −80° C.
In order to determine the quality of the extracted RNA, electrophoresis runs on 0.8% agarose gel were carried out. The amount of the recovered RNA was quantified by its absorbance at 260 nm. Protein contamination quality control was carried out by ensuring that the 260/280 nm absorbance ratio was greater than 1.8
cDNA production from the extracted RNA was carried out as per ImProm-II™ Reverse Transcription System (Promega). 0.5 μg di RNA was retro-transcribed by using random hexamer. The produced cDNA was then stored at −80° C. until use.
The expression of the genes encoding for γ-globin was evaluated by quantitative RT-PCR, using the following primer and probe oligonucleotides (FAM=6-carboxy fluorescein, TAMRA=6-carboxy-N,N,N′,N′-tetramethylrhodamine):
For real-time PCR analysis we used as reference gene the endogenous control human GAPDH kit (Applied Biosystems).
as §1

T1 sequence (Q13547 whole entry): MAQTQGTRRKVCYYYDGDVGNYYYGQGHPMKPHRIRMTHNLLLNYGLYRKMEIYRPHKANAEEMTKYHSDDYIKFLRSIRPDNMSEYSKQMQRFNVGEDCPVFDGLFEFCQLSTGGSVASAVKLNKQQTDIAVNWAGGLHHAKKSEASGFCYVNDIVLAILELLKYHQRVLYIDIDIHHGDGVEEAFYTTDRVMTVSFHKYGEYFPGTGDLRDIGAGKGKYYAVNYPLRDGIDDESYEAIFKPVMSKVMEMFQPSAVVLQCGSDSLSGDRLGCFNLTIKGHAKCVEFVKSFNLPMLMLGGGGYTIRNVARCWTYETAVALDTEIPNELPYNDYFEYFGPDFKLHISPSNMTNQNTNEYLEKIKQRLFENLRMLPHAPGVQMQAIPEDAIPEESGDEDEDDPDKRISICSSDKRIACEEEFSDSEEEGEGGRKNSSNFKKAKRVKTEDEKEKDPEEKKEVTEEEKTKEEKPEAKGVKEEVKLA

Compound: CCC(=O)CCCCC[C@H](NC(=O)C1CN(C)C1)c1ncc(-c2cc3ccccc3nc2OC)o1 [Compound 2, (S)-N-(1-(5-(2-methoxyquinolin-3-yl)oxazol-2-yl)-7-oxononyl)-1-methylazetidine-3-carboxamide]
- pIC50 (HDAC1): > 7.00
- pIC50 (HDAC in Hela cells): > 7.00
- % of benzidine positive cells after 6 days (K562 cells; 70 nM): 10%
- Benzidine positive cells (%) (K562 cells; optimized concentration, mean ± SD of six experiments): 25 ± 3.5%
- γ-globin mRNA content (fold induction) ([1]; 70 nM): 1.75 fold induction

Compound: CCC(=O)CCCCC[C@H](NC(=O)C(=O)N1CCN(C)CC1)c1ncc(-c2cc3ccccc3nc2OC)o1 [Compound 37, (S)-N-(1-(5-(2-methoxyquinolin-3-yl)oxazol-2-yl)-7-oxononyl)-2-(4-methylpiperazin-1-yl)-2-oxoacetamide]
- pIC50 (HDAC1): > 7.00
- pIC50 (HDAC in Hela cells): 6.00 to 7.00
- % of benzidine positive cells after 6 days (K562 cells; 1600 nM): 16%
- γ-globin mRNA content (fold induction) ([1]; 1600 nM): 7.84 fold induction

Compound: CCC(=O)CCCCC[C@H](NC(=O)C1(F)CN(C)C1)c1ncc(-c2cc3ccccc3nc2OC)o1 [Compound 67, (S)-3-fluoro-N-(1-(5-(2-methoxyquinolin-3-yl)oxazol-2-yl)-7-oxononyl)-1-methylazetidine-3-carboxamide]
- pIC50 (HDAC1): > 7.00
- pIC50 (HDAC in Hela cells): 6.00 to 7.00
- % of benzidine positive cells after 6 days (K562 cells; 1800 nM): 12%
- γ-globin mRNA content (fold induction) ([1]; 1800 nM): 5.08 fold induction

Compound: CCC(=O)CCCCC[C@H](NC(=O)Cn1nc(C)nc1C)c1ncc(-c2cc3ccccc3nc2OC)o1 [Compound 80, (S)-2-(3,5-dimethyl-1H-1,2,4-triazol-1-yl)-N-(1-(5-(2-methoxyquinolin-3-yl)oxazol-2-yl)-7-oxononyl)acetamide]
- pIC50 (HDAC1): > 7.00
- pIC50 (HDAC in Hela cells): 6.00 to 7.00
- % of benzidine positive cells after 6 days (K562 cells; 200 nM): 1%
- γ-globin mRNA content (fold induction) ([1]; 200 nM): 1.03 fold induction

Compound: CCC(=O)CCCCC[C@H](NC(=O)c1cnc(CN2CCCC2)s1)c1ncc(-c2cc3ccccc3nc2OC)o1 [Compound 82, (S)-N-(1-(5-(2-methoxyquinolin-3-yl)oxazol-2-yl)-7-oxononyl)-2-(pyrrolidin-1-ylmethyl)thiazole-5-carboxamide]
- pIC50 (HDAC1): > 7.00
- pIC50 (HDAC in Hela cells): > 7.00
- % of benzidine positive cells after 6 days (K562 cells; 260 nM): 4.5%
- γ-globin mRNA content (fold induction) ([1]; 260 nM): 0.96 fold induction

Compound: CCC(=O)CCCCC[C@H](NC(=O)C1CN(C)C1)c1ncc(-c2cc3ccccc3n(C)c2=O)o1 [Compound 92, (S)-1-methyl-N-(1-(5-(1-methyl-2-oxo-1,2-dihydroquinolin-3-yl)oxazol-2-yl)-7-oxononyl)azetidine-3-carboxamide]
- pIC50 (HDAC1): > 7.00
- pIC50 (HDAC in Hela cells): > 7.00
- % of benzidine positive cells after 6 days (K562 cells; 40 nM): 8%
- γ-globin mRNA content (fold induction) ([1]; 40 nM): 1.24 fold induction

Compound: CCC(=O)CCCCC[C@H](NC(=O)CCN(C)C)c1ncc(-c2cc3ccccc3n(C)c2=O)o1 [Compound 106, (S)-3-(dimethylamino)-N-(1-(5-(1-methyl-2-oxo-1,2-dihydroquinolin-3-yl)oxazol-2-yl)-7-oxononyl)propanamide]
- pIC50 (HDAC1): > 7.00
- pIC50 (HDAC in Hela cells): > 7.00
- % of benzidine positive cells after 6 days (K562 cells; 60 nM): 8.5%
- γ-globin mRNA content (fold induction) ([1]; 60 nM): 2.01 fold induction

Compound: CCC(=O)CCCCC[C@H](NC(=O)C(C)(C)N(C)C)c1ncc(-c2cc3ccccc3n(C)c2=O)o1 [Compound 107, (S)-2-(dimethylamino)-2-methyl-N-(1-(5-(1-methyl-2-oxo-1,2-dihydroquinolin-3-yl)oxazol-2-yl)-7-oxononyl)propanamide]
- pIC50 (HDAC1): > 7.00
- pIC50 (HDAC in Hela cells): > 7.00
- % of benzidine positive cells after 6 days (K562 cells; 40 nM): 2%
- γ-globin mRNA content (fold induction) ([1]; 40 nM): 1.87 fold induction

Compound: CCC(=O)CCCCC[C@H](NC(=O)C1CCN(C)CC1)c1ncc(-c2cc3ccccc3n(C)c2=O)o1 [Compound 109, (S)-1-methyl-N-(1-(5-(1-methyl-2-oxo-1,2-dihydroquinolin-3-yl)oxazol-2-yl)-7-oxononyl)piperidine-4-carboxamide]
- pIC50 (HDAC1): > 7.00
- pIC50 (HDAC in Hela cells): > 7.00
- % of benzidine positive cells after 6 days (K562 cells; 60 nM): 1.5%
- γ-globin mRNA content (fold induction) ([1]; 60 nM): 1.31 fold induction

Compound: CCC(=O)CCCCC[C@H](NC(=O)c1cncs1)c1ncc(-c2cc3ccccc3n(C)c2=O)o1 [Compound 110, (S)-N-(1-(5-(1-methyl-2-oxo-1,2-dihydroquinolin-3-yl)oxazol-2-yl)-7-oxononyl)thiazole-5-carboxamide]
- pIC50 (HDAC1): > 7.00
- pIC50 (HDAC in Hela cells): > 7.00
- % of benzidine positive cells after 6 days (K562 cells; 300 nM): 5%
- γ-globin mRNA content (fold induction) ([1]; 300 nM): 1.19 fold induction

Compound: CCC(=O)CCCCC[C@H](NC(=O)C1(N(C)C)CCCC1)c1ncc(-c2cc3ccccc3n(C)c2=O)o1 [Compound 111, (S)-1-(dimethylamino)-N-(1-(5-(1-methyl-2-oxo-1,2-dihydroquinolin-3-yl)oxazol-2-yl)-7-oxononyl)cyclopentanecarboxamide]
- pIC50 (HDAC1): > 7.00
- pIC50 (HDAC in Hela cells): > 7.00
- % of benzidine positive cells after 6 days (K562 cells; 60 nM): 6%
- γ-globin mRNA content (fold induction) ([1]; 60 nM): 2.51 fold induction
